Results published in paper PMC7211198, “Phase 1b study of a small molecule antagonist of human chemokine (C-C motif) receptor 2 (PF-04136309) in combination with nab-paclitaxel/gemcitabine in first-line treatment of metastatic pancreatic ductal adenocarcinoma” (Investigational New Drugs, 2019).
Marks after values point to notes of the source that are not given here.

Test: Safety and tolerability (TEAEs, SAEs, DLTs, RP2D) in phase Ib study
Format: in vivo, human
Description: Safety assessments included collection of adverse events (AEs), serious AEs (SAEs), vital signs and physical examination, electrocardiogram (12-lead), laboratory assessments, including pregnancy test, and verification of concomitant treatments. A patient was considered as DLT-evaluable if the patient experienced a DLT or if otherwise, in the absence of a DLT, the patient received at least 85% of the planned doses of each study drug in the first 28-day cycle. DLTs were defined as any of the following events occurring in the first cycle of treatment (days 1 through 28) and attributed (i.e., judged to be at least possibly related) to the combination of PF-04136309 plus nab-paclitaxel/gemcitabine, where relationship with the combination could not be ruled out. DLTs were hematologic events of grade 4 neutropenia lasting >5 days; febrile neutropenia; grade ≥ 3 neutropenic infection; grade ≥ 3 thrombocytopenia with grade ≥ 2 bleeding; grade 4 thrombocytopenia; and nonhematologic events of grade 3 toxicities. Exceptions included nausea and vomiting responding to prophylaxis and/or treatment and lasting <7 days from each chemotherapy infusion period; diarrhea responding to treatment and lasting <7 days; grade 3 fatigue lasting <7 days; grade 3 QT interval corrected for heart rate prolongation (>500 msec) persisting after correction of any reversible causes; and/or grade 3 aspartate aminotransferase (AST) and/or alanine aminotransferase (ALT) increase lasting ≤7 days. All grade 4 toxicities and a delay of >2 weeks in receiving the next scheduled cycle due to persistent treatment-related toxicities were considered DLTs. AEs meeting DLT criteria in the dose-expansion phase included grade 3 events of diarrhea, hypokalemia, and dysesthesia and grade 4 hypoxia. […] AEs were graded according to the National Cancer Institute Common Terminology Criteria for Adverse Events, version 4.03.

[1] = 750 mg BID + nab-P/Gem, all-causality TEAE
[2] = 750 mg BID + nab-P/Gem, treatment-related SAE
[3] = 500-mg BID group (n = 17), n = 1, considered unrelated to study treatment
[4] = Total N = 21, treatment-related TEAE

## O=C(NCC(=O)N1CC[C@H](N[C@H]2CC[C@@](O)(c3ccc(-c4ncccn4)cn3)CC2)C1)c1cccc(C(F)(F)F)c1 [PF-04136309]
[1]
  Chills, Grade 5: 0 n (%)
  Chills, Total: 2 (50.0) n (%)
  Constipation, Grade 1: 2 (50.0) n (%)
  Constipation, Grade 2: 1 (25.0) n (%)
  Constipation, Grade 3: 0 n (%)
  Constipation, Grade 4: 0 n (%)
  Constipation, Grade 5: 0 n (%)
  Constipation, Total: 3 (75.0) n (%)
  Fatigue, Grade 1: 3 (75.0) n (%)
  Fatigue, Grade 2: 1 (25.0) n (%)
  Fatigue, Grade 3: 0 n (%)
  Fatigue, Grade 4: 0 n (%)
  Fatigue, Grade 5: 0 n (%)
  Fatigue, Total: 4 (100.0) n (%)
  Insomnia, Grade 1: 1 (25.0) n (%)
  Insomnia, Grade 2: 1 (25.0) n (%)
  Insomnia, Grade 3: 0 n (%)
  Insomnia, Grade 4: 0 n (%)
  Insomnia, Grade 5: 0 n (%)
  Insomnia, Total: 2 (50.0) n (%)
  Leukopenia, Grade 1: 0 n (%)
  Leukopenia, Grade 2: 0 n (%)
  Leukopenia, Grade 3: 3 (75.0) n (%)
  Leukopenia, Grade 4: 0 n (%)
  Leukopenia, Grade 5: 0 n (%)
  Leukopenia, Total: 3 (75.0) n (%)
  Malaise, Grade 1: 2 (50.0) n (%)
  Malaise, Grade 2: 0 n (%)
  Malaise, Grade 3: 0 n (%)
  Malaise, Grade 4: 0 n (%)
  Malaise, Grade 5: 0 n (%)
  Malaise, Total: 2 (50.0) n (%)
  Nausea, Grade 1: 3 (75.0) n (%)
  Nausea, Grade 2: 0 n (%)
  Nausea, Grade 3: 1 (25.0) n (%)
  Nausea, Grade 4: 0 n (%)
  Nausea, Grade 5: 0 n (%)
  Nausea, Total: 4 (100.0) n (%)
  Neutropenia, Grade 1: 0 n (%)
  Neutropenia, Grade 2: 0 n (%)
  Neutropenia, Grade 3: 3 (75.0) n (%)
  Neutropenia, Grade 4: 0 n (%)
  Neutropenia, Grade 5: 0 n (%)
  Neutropenia, Total: 3 (75.0) n (%)
  Pain in extremity, Grade 1: 1 (25.0) n (%)
  Pain in extremity, Grade 2: 1 (25.0) n (%)
  Pain in extremity, Grade 3: 0 n (%)
  Pain in extremity, Grade 4: 0 n (%)
  Pain in extremity, Grade 5: 0 n (%)
  Pain in extremity, Total: 2 (50.0) n (%)
  Pyrexia, Grade 1: 1 (25.0) n (%)
  Pyrexia, Grade 2: 1 (25.0) n (%)
  Pyrexia, Grade 3: 0 n (%)
  Pyrexia, Grade 4: 0 n (%)
  Pyrexia, Grade 5: 0 n (%)
  Pyrexia, Total: 2 (50.0) n (%)
  Rash, Grade 1: 2 (50.0) n (%)
  Rash, Grade 2: 1 (25.0) n (%)
  Rash, Grade 3: 0 n (%)
  Rash, Grade 4: 0 n (%)
  Rash, Grade 5: 0 n (%)
  Rash, Total: 3 (75.0) n (%)
  Thrombocytopenia, Grade 1: 1 (25.0) n (%)
  Thrombocytopenia, Grade 2: 1 (25.0) n (%)
  Thrombocytopenia, Grade 3: 0 n (%)
  Thrombocytopenia, Grade 4: 0 n (%)
  Thrombocytopenia, Grade 5: 0 n (%)
  Thrombocytopenia, Total: 2 (50.0) n (%)
  Vomiting, Grade 1: 2 (50.0) n (%)
  Vomiting, Grade 2: 1 (25.0) n (%)
  Vomiting, Grade 3: 0 n (%)
  Vomiting, Grade 4: 0 n (%)
  Vomiting, Grade 5: 0 n (%)
  Vomiting, Total: 3 (75.0) n (%)
[2]
  Any SAE, Grade 1: 0 n (%)
  Any SAE, Grade 2: 1 (25.0) n (%)
  Any SAE, Grade 3: 1 (25.0) n (%)
  Any SAE, Grade 4: 0 n (%)
  Any SAE, Grade 5: 0 n (%)
  Any SAE, Total: 2 (50.0) n (%)
  Cognitive disorder, Grade 1: 0 n (%)
  Cognitive disorder, Grade 2: 0 n (%)
  Cognitive disorder, Grade 3: 1 (25.0) n (%)
  Cognitive disorder, Grade 4: 0 n (%)
  Cognitive disorder, Grade 5: 0 n (%)
  Cognitive disorder, Total: 1 (25.0) n (%)
  Rash, Grade 1: 0 n (%)
  Rash, Grade 2: 1 (25.0) n (%)
  Rash, Grade 3: 0 n (%)
  Rash, Grade 4: 0 n (%)
  Rash, Grade 5: 0 n (%)
  Rash, Total: 1 (25.0) n (%)
14 of the 21 treated patients
  Patients who experienced SAEs: 66.7%
[3]
  Grade 4 TEAE: decreased neutrophil count, patients: 5.9%
  Grade 4 TEAE: decreased white blood cell count, patients: 5.9%
500-mg BID group (n = 17), n = 6
  PF-04136309-related TEAE: rash, patients: 35.3%
750-mg BID group (n = 4), n = 3
  PF-04136309-related TEAE: rash, patients: 75.0%
750-mg BID group, one of four patients, cycle 1 day 7, resolved same day
  DLT events: grade 3 cognitive disorder
[4]
  ALT increase, grade ≥3: 4 (19.0) n (%)
  AST increase, grade ≥3: 4 (19.0) n (%)
  Anemia, grade ≥3: 4 (19.0) n (%)
  Fatigue, grade ≥3: 4 (19.0) n (%)
  Leukopenia, grade ≥3: 5 (23.8) n (%)
  Lymphopenia, grade ≥3: 5 (23.8) n (%)
  Neutropenia, grade ≥3: 5 (23.8) n (%)
Total n = 21, first cycle, 5 DLTs in four patients
  DLT: 4 (19.0)^c n (%)
All in 500-mg BID group, 10 of 11 due to disease under study, one due to grade 5 pneumonia
  Deaths: Eleven
All treated patients
  Changes in laboratory tests consistent with a relationship to study drug: no clinically significant changes
  Changes in vital signs data consistent with a relationship to study drug: no clinically significant changes
In combination with nab-paclitaxel/gemcitabine
  Recommended phase II dose (RP2D): 500 mg BID
In vivo
  Late-onset DLT: Grade 3 pneumonitis
N = 21, combination with nab-paclitaxel/gemcitabine
  Incidence of pulmonary toxicity: 24%
Seven of 21, attributed to at least one of PF-04136309, nab-paclitaxel, gemcitabine
  Patients who experienced treatment-related SAEs: 33.3%
